Source: PubChem BioAssay AID330 (DTP/NCI, 2004)
Where “and” joins values, the source holds several entries; their conditions need not be identical. Equal values may be shown once. Inconclusive results and toxic doses are left out.

Tested on: P388 leukemia ip, CD2F1 mice, survival T/C
Experiment: NCI In Vivo Anticancer Drug Screen. Data for tumor model P388 Leukemia (intraperitoneal) in CD2F1 (CDF1) mice
Details: endpoint: median survival time, higher = longer survival
In short: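 Mice carrying the transplanted tumor received test compound or vehicle. Survival was recorded in each group, and the value is the treated-group measurement divided by that of the vehicle-treated control group.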

[1] = dose: 12.5 mg/kg/injection, schedule: Q04DX003 (ip), vehicle: saline
[2] = dose: 25.0 mg/kg/injection, schedule: Q04DX003 (ip), vehicle: saline
[3] = dose: 100.0 mg/kg/injection, schedule: Q01DX009 (ip), vehicle: saline with Tween-80
[4] = dose: 200.0 mg/kg/injection, schedule: Q01DX009 (ip), vehicle: saline with Tween-80
[5] = dose: 100.0 mg/kg/injection, schedule: Q04DX002 (ip), vehicle: saline with Tween-80
[6] = dose: 200.0 mg/kg/injection, schedule: Q04DX002 (ip), vehicle: saline with Tween-80
[7] = dose: 60.0 mg/kg/injection, schedule: Q01DX005 (ip), vehicle: saline with Tween-80
[8] = dose: 120.0 mg/kg/injection, schedule: Q01DX005 (ip), vehicle: saline with Tween-80
[9] = dose: 240.0 mg/kg/injection, schedule: Q01DX005 (ip), vehicle: saline with Tween-80
[10] = dose: 50.0 mg/kg/injection, schedule: Q01DX009 (ip), vehicle: saline with Tween-80
[11] = dose: 50.0 mg/kg/injection, schedule: Q01DX005 (ip), vehicle: saline with Tween-80
[12] = dose: 100.0 mg/kg/injection, schedule: Q01DX005 (ip), vehicle: saline with Tween-80
[13] = dose: 200.0 mg/kg/injection, schedule: Q01DX005 (ip), vehicle: saline with Tween-80
[14] = dose: 50.0 mg/kg/injection, schedule: Q01DX009 (ip), vehicle: Klucel (hydroxypropylcellulose) (HPC)
[15] = dose: 100.0 mg/kg/injection, schedule: Q01DX009 (ip), vehicle: Klucel (hydroxypropylcellulose) (HPC)
[16] = dose: 100.0 mg/kg/injection, schedule: Q04DX003 (ip), vehicle: Klucel (hydroxypropylcellulose) (HPC)
[17] = dose: 200.0 mg/kg/injection, schedule: Q04DX003 (ip), vehicle: Klucel (hydroxypropylcellulose) (HPC)
[18] = dose: 50.0 mg/kg/injection, schedule: Q04DX003 (ip), vehicle: saline
[19] = dose: 100.0 mg/kg/injection, schedule: Q04DX003 (ip), vehicle: saline

## CCCCCCCCCCCCCCCC[N+](C)(C)Cc1ccccc1
dose: 6.25 mg/kg/injection, schedule: Q04DX003 (ip), vehicle: saline
  T/C: 98 % of control
[1]
  T/C: 98 % of control
[2]
  T/C: 100 % of control

## C[C@@H]1CC(=O)C[C@H]2CCCCN21
dose: 12.5 mg/kg/injection, schedule: Q01DX005 (ip), vehicle: saline
  T/C: 102 % of control
dose: 25.0 mg/kg/injection, schedule: Q01DX005 (ip), vehicle: saline
  T/C: 103 % of control
dose: 50.0 mg/kg/injection, schedule: Q01DX005 (ip), vehicle: saline
  T/C: 105 % of control

## Cc1c(C)c(Cl)c(C)c(C)c1Cl
dose: 5.0 mg/kg/injection, schedule: Q01DX009 (ip), vehicle: saline with Tween-80
  T/C: 95 % of control
dose: 10.0 mg/kg/injection, schedule: Q01DX009 (ip), vehicle: saline with Tween-80
  T/C: 100 % of control
dose: 20.0 mg/kg/injection, schedule: Q01DX009 (ip), vehicle: saline with Tween-80
  T/C: 100 % of control

## CCCCCCCCCC(=O)OC(C)C(=O)N(CCCC)CCCC (stereo not drawn)
[3]
  T/C: 110 % of control
[4]
  T/C: 102 % of control
dose: 400.0 mg/kg/injection, schedule: Q01DX009 (ip), vehicle: saline with Tween-80
  T/C: 106 % of control

## CCCCCCCCCCCCCCCCN(C)C(C)c1ccccc1 (stereo not drawn)
[5]
  T/C: 103 % of control
[6]
  T/C: 101 % of control
dose: 400.0 mg/kg/injection, schedule: Q04DX002 (ip), vehicle: saline with Tween-80
  T/C: 104 % of control

## CC1=C(C)[CH2][Ge]([CH3])([CH3])[CH2]1
dose: 60.0 mg/kg/injection, schedule: Q01DX005 (ip), vehicle: saline
  T/C: 98 % of control
dose: 120.0 mg/kg/injection, schedule: Q01DX005 (ip), vehicle: saline
  T/C: 104 % of control
dose: 240.0 mg/kg/injection, schedule: Q01DX005 (ip), vehicle: saline
  T/C: 97 % of control

## Cc1ccc(NC(=O)CCSC(=O)Nc2ccc(C)cc2)cc1
dose: 100.0 mg/kg/injection, schedule: Q04DX002 (ip), vehicle: Klucel (hydroxypropylcellulose) (HPC)
  T/C: 101 % of control
dose: 200.0 mg/kg/injection, schedule: Q04DX002 (ip), vehicle: Klucel (hydroxypropylcellulose) (HPC)
  T/C: 104 % of control
dose: 400.0 mg/kg/injection, schedule: Q04DX002 (ip), vehicle: Klucel (hydroxypropylcellulose) (HPC)
  T/C: 104 % of control

## CCOC(=O)c1[nH]c(=S)sc1N
[7]
  T/C: 99 % of control
[8]
  T/C: 92 % of control
[9]
  T/C: 90 % of control

## CC(C)CCCCCCCCCCCCC(=O)NCCC(=O)NC1C(CO)OC(Nc2ncnc3nc[nH]c23)C(O)C1O (stereo not drawn)
dose: 0.39 mg/kg/injection, schedule: Q01DX009 (ip), vehicle: other
  T/C: 107 % of control
dose: 0.78 mg/kg/injection, schedule: Q01DX009 (ip), vehicle: other
  T/C: 102 % of control
dose: 1.56 mg/kg/injection, schedule: Q01DX009 (ip), vehicle: other
  T/C: 156 % of control
dose: 6.25 mg/kg/injection, schedule: Q01DX009 (ip), vehicle: other
  T/C: 112 % of control and 96 % of control
dose: 12.5 mg/kg/injection, schedule: Q01DX009 (ip), vehicle: other
  T/C: 93 % of control

## COC(=O)C1CC=CCC1C(=O)O (stereo not drawn)
[10]
  T/C: 93 % of control
[3]
  T/C: 95 % of control
[4]
  T/C: 99 % of control

## Cc1cc[n+](C2=C(Nc3c(C)cccc3C)C(=O)c3ccccc3C2=O)cc1
[7]
  T/C: 102 % of control
[8]
  T/C: 102 % of control
[9]
  T/C: 114 % of control

## O=C1/C(=C\c2ccc3c(c2)OCO3)SC(=S)N1CCCN1CCOCC1
[11]
  T/C: 92 % of control
[12]
  T/C: 90 % of control
[13]
  T/C: 93 % of control

## Cc1c2occc2cc2c1oc(=O)c1cnccc12
dose: 50.0 mg/kg/injection, schedule: Q01DX005 (ip), vehicle: Klucel (hydroxypropylcellulose) (HPC)
  T/C: 105 % of control
dose: 100.0 mg/kg/injection, schedule: Q01DX005 (ip), vehicle: Klucel (hydroxypropylcellulose) (HPC)
  T/C: 100 % of control
dose: 200.0 mg/kg/injection, schedule: Q01DX005 (ip), vehicle: Klucel (hydroxypropylcellulose) (HPC)
  T/C: 98 % of control

## O=C(O)CS(=O)NN(c1ccccc1)c1ccccc1 (stereo not drawn)
[5]
  T/C: 102 % of control
[6]
  T/C: 102 % of control

## OC1(C2NCCc3ccccc32)CCN(CCc2ccccc2)CC1 (stereo not drawn)
[14]
  T/C: 87 % of control
[15]
  T/C: 94 % of control

## Nc1nc2ccccc2c2c1C(=O)NC2=O
[10]
  T/C: 104 % of control
[3]
  T/C: 86 % of control
[4]
  T/C: 90 % of control

## Cc1c(Br)sc2c1ccc1ccccc12
[10]
  T/C: 101 % of control
[3]
  T/C: 100 % of control
[4]
  T/C: 109 % of control

## CC1(C)CC(c2ccccc2)C(c2ccccc2)C(=O)O1 (stereo not drawn)
[16]
  T/C: 93 % of control
[17]
  T/C: 92 % of control

## CC(C)CNS(=O)(=O)c1ncnc2nc[nH]c12
dose: 100.0 mg/kg/injection, schedule: Q04DX003 (ip), vehicle: saline with Tween-80
  T/C: 100 % of control
dose: 200.0 mg/kg/injection, schedule: Q04DX003 (ip), vehicle: saline with Tween-80
  T/C: 87 % of control

## N=C=S.N=C=S.O=[N+]([O-])O.[Co+3].[NH2-].[NH2-].[NH2-].[NH2-]
[14]
  T/C: 113 % of control

## O=C(N/N=C/c1ccccc1O)c1ccccc1O
[11]
  T/C: 100 % of control
[12]
  T/C: 96 % of control
[13]
  T/C: 99 % of control

## CC(=O)CC(C)=NCCN=C(C)CC(C)=O.C[CH2][Sn][CH2]C
[1]
  T/C: 106 % of control
[2]
  T/C: 105 % of control
[18]
  T/C: 120 % of control
[19]
  T/C: 150 % of control

## O=S1(=O)CC2=C(C1)C1C=CC2C2C=CC12 (stereo not drawn)
[2]
  T/C: 98 % of control
[18]
  T/C: 101 % of control
[19]
  T/C: 107 % of control and 96 % of control

## O=[N+]([O-])c1ccc(NN=C2CCCCC2)c([N+](=O)[O-])c1
dose: 25.0 mg/kg/injection, schedule: Q04DX003 (ip), vehicle: Klucel (hydroxypropylcellulose) (HPC)
  T/C: 103 % of control
dose: 50.0 mg/kg/injection, schedule: Q04DX003 (ip), vehicle: Klucel (hydroxypropylcellulose) (HPC)
  T/C: 104 % of control
[16]
  T/C: 105 % of control
[17]
  T/C: 112 % of control

## NC(=O)C1=Cc2cccn2-c2ccccc2S1
dose: 60.0 mg/kg/injection, schedule: Q01DX005 (ip), vehicle: Klucel (hydroxypropylcellulose) (HPC)
  T/C: 105 % of control
dose: 120.0 mg/kg/injection, schedule: Q01DX005 (ip), vehicle: Klucel (hydroxypropylcellulose) (HPC)
  T/C: 101 % of control

## CC(C)(C)C(=O)CP(=O)(O)O
dose: 50.0 mg/kg/injection, schedule: Q01DX009 (ip), vehicle: saline
  T/C: 95 % of control and 100 % of control
dose: 100.0 mg/kg/injection, schedule: Q01DX009 (ip), vehicle: saline
  T/C: 104 % of control and 97 % of control
dose: 200.0 mg/kg/injection, schedule: Q01DX009 (ip), vehicle: saline
  T/C: 95 % of control and 101 % of control

## COC(=O)C1(C)C(=O)C=CC2(C)C1CC(O)C1(C)C2C(O)C(O)C2(C)C(c3ccoc3)CC3OC321 (stereo not drawn) (tested in a mixture with another compound)
dose: 0.75 mg/kg/injection, schedule: Q01DX005 (ip), vehicle: Klucel (hydroxypropylcellulose) (HPC)
  T/C: 102 % of control
dose: 1.5 mg/kg/injection, schedule: Q01DX005 (ip), vehicle: Klucel (hydroxypropylcellulose) (HPC)
  T/C: 96 % of control
dose: 3.0 mg/kg/injection, schedule: Q01DX005 (ip), vehicle: Klucel (hydroxypropylcellulose) (HPC)
  T/C: 96 % of control
dose: 6.0 mg/kg/injection, schedule: Q01DX005 (ip), vehicle: Klucel (hydroxypropylcellulose) (HPC)
  T/C: 99 % of control
dose: 12.0 mg/kg/injection, schedule: Q01DX005 (ip), vehicle: Klucel (hydroxypropylcellulose) (HPC)
  T/C: 103 % of control

## [Br][Pt].[NH-]CC[N-]CC[NH-]
dose: 1.56 mg/kg/injection, schedule: Q01DX009 (ip), vehicle: saline
  T/C: 102 % of control
dose: 3.13 mg/kg/injection, schedule: Q01DX009 (ip), vehicle: saline
  T/C: 100 % of control
dose: 6.25 mg/kg/injection, schedule: Q01DX009 (ip), vehicle: saline
  T/C: 100 % of control
dose: 12.5 mg/kg/injection, schedule: Q01DX009 (ip), vehicle: saline
  T/C: 97 % of control
dose: 25.0 mg/kg/injection, schedule: Q01DX009 (ip), vehicle: saline
  T/C: 97 % of control

## Cc1ccnc(N=Cc2ccccc2O)c1
[14]
  T/C: 104 % of control
[15]
  T/C: 100 % of control
dose: 200.0 mg/kg/injection, schedule: Q01DX009 (ip), vehicle: Klucel (hydroxypropylcellulose) (HPC)
  T/C: 100 % of control
